From patent US5449676A, “Pyridazines” (priority 1991, dated 1995)
Like-named read-outs stand apart in the source and are kept apart here.

Columns and labels:
PDE III = biological target: T1, PDE III (Homo sapiens, UniProt Q14432); assay: inhibition of PDE III isolated from human platelets; assay type: biochemical; conditions: negative logarithm of IC50, cAMP 0.5 μmol/l; for IC50: read-out: PDE III hum. platelets -lg[IC50 ] (converted)
T1 construct: PDE III isolated from human platelets; from tissue; host or cells: human platelets
T1 sequence (Q14432 whole entry): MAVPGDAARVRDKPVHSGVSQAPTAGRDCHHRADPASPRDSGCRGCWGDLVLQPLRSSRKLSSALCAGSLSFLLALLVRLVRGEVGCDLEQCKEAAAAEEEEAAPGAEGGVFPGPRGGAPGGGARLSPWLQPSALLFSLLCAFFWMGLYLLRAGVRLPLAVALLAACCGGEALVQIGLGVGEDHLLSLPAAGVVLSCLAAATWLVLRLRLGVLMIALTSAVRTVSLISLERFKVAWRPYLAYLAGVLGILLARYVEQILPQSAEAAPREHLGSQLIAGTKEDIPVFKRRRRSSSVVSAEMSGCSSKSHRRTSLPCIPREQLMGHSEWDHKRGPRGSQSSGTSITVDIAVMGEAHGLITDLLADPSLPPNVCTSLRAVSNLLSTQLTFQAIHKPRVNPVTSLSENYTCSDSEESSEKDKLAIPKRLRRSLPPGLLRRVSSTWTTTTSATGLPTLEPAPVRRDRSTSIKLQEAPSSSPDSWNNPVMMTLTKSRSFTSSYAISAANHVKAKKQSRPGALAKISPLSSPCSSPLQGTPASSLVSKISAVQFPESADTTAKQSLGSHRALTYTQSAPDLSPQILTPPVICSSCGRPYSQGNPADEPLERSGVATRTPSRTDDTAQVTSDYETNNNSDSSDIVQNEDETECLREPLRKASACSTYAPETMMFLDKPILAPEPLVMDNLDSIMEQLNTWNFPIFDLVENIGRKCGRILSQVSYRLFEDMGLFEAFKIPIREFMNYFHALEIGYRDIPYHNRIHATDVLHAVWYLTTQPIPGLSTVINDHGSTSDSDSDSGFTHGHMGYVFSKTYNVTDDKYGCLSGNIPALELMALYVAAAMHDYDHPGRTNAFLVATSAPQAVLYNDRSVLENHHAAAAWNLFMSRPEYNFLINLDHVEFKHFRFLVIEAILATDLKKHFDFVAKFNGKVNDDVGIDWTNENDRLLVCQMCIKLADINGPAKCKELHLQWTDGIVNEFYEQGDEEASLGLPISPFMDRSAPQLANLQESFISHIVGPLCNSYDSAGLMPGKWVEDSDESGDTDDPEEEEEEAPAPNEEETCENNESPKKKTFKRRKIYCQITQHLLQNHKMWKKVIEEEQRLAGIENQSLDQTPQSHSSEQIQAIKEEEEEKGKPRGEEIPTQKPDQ
From the text: (§1) The specific inhibition of phosphodiesterase IV (PDE IV=high-affinity cAMP-PDE which cannot be inhibited by cGMP, rolipram-sensitive) is regarded as particularly indicative of an expected bronchospasmolytic and/or antiinflammatory effect. The specificity of the inhibition is moreover described by the ratio [IC50 ]PDE-III /[IC50 ]PDE-IV (PDE III=high-affinity cAMP-PDE which can be inhibited by cGMP) [H. Hidaka et al., Adv. Cycl. Nucl. Res. 13, 145 (1984); TiPS 5, 237 (1984); R. Weishaar et al., J. Med. Chem. 28, (1985); S. A. Harrison et al., Molec. Pharmac. 29, 506 (1986); J. Klein-Tebbe et al., Allergologie 12, 12 (1989); C. Schudt et al., Allergologie 12, 12, (1989); C. Schudt et al., Agents and Action 1991 in press; C. D. Nicholson et al., TiPS 12, (1), 19 (1991)].
(§2) For this reason, the PDE inhibition by the compounds according to the invention was determined on a PDE III isolated from human platelets and on PDE IV isolated from human polymorphonuclear neutrophilic cells (PMNs) and from the dog trachea. Phosphodiesterases III and IV are isolated by chromatography as described by Polson et al., Biochem. Pharmacol. 31, 3403-3406 (1982).
(§3) The substances are dissolved and diluted further in DMSO. 2.1 μl samples from a series of solutions diluted up to 100 fold are mixed with 212 μl of reaction mixture. The reaction mixture contains Hepes (100 mmol/l), DTE (5 mmol/l), MgCl2 (5 mmol/l), CaCl2 (10 μmol/l), BSA fraction V 0.5 mg, ml, cAMP 0.5 μmol/l, 2,8-^3 H-cAMP 250,000 cpm/ml (0.3 μCi/ml, S.A. […]), SV (snake venom) 25 μg/212 μl of test mixture.

PDE IV [1] = assay: inhibition of PDE IV isolated from dog trachea; assay type: biochemical; conditions: for PDE IV dog trachea -lg[IC50 ]: negative logarithm of IC50, cAMP 0.5 μmol/l; for [IC50 ] PDE III/[IC50 ] PDE IV dog tr.: selectivity ratio, PDE III hum. platelets vs PDE IV dog trachea
From the text: as §1, §2, §3

tracheal rings = assay: bronchospasmolytic effect on the chain of tracheal rings from guinea pigs in vitro; assay type: cell-based; conditions: for EC50: Cavia porcellus, negative logarithm of EC50 mol/l, 50% of maximum achievable relaxation, read-out: -lg[EC50 ] (converted); for [EC50 ] theophylline/[EC50 ] substance: ratio of EC50 values, theophylline vs substance
Procedure: The bronchospasmolytic effect of the compounds on the chain of tracheal rings from guinea pigs was tested in vitro as follows:
Thus, a complete dose-effect plot for the test substance is obtained over a period of 20 to 30 minutes. The particular relaxation is expressed as a percentage fraction of the maximum relaxation achievable by administration of (-)isoprenaline (10^-6 mol/l).

[2] = test system: acetylcholine-induced bronchospasm; assay: protective effect against acetylcholine-induced bronchospasm in conscious guinea pigs; assay type: in vivo; conditions: oral, 30 minutes after administration, percentage of protected animals
Procedure: In addition, the bronchospasmolytic effect was tested on the "protective effect against acetylcholine-induced bronchospasm in conscious guinea pigs" model:
Guinea pigs (250-350 g) are exposed in a closed Plexiglass cylinder (volume […] ) to an acetylcholine mist (0.06% in 0.9% sodium chloride solution; Heyer Use 77 ultrasonic atomizer) before administration of the substance and twice at an interval of 20 minutes after administration of the substance. The time from the start of atomization to the onset of marked breathing difficulties (in some cases hypoxic convulsion in the lateral position) is measured and called the latency time. An increase in the latency time after administration of the substance to at least three times the average latency time before administration of the substance is regarded as a protective effect, and the number of protected animals in the group is determined. […]
[…] After 30 minutes, the animals are again exposed to the acetylcholine mist and the latency times are measured. An increase in the latency time to at least three times the length is regarded as a protective effect.

PDE IV [3] = assay: inhibition of PDE IV isolated from human polymorphonuclear neutrophilic cells (PMNs); assay type: biochemical; conditions: for PDE IV hum. PMNs -lg[IC50 ]: negative logarithm of IC50, cAMP 0.5 μmol/l; for [IC50 ] PDE III/[IC50 ] PDE IV PMNs: selectivity ratio, PDE III hum. platelets vs PDE IV hum. PMNs
From the text: as §1, §2, §3

[4] = test system: histamine-induced bronchospasm; assay: histamine-induced bronchospasm in anesthetized guinea pigs; assay type: in vivo; conditions: 20 μmol/kg; for inhibition in vivo at 20 µmol/kg: Cavia porcellus, iv
Procedure: One histamine spasm before administration of the substance was compared with several histamine spasms after administration of the substance. The test substances were administered intravenously (i.v.) and/or intrajejunally (i.j.).

[5] = Cavia porcellus, 0.5 h, 100 μmol/kg
[6] = after 1 h, read-out: % inhibition after 1 h of the histamine-induced decrease in Vmax
[7] = average 0-1 h after administration, read-out: % inhibition (0-1 h) of the histamine-induced decrease in Vmax

For CCOc1ccc(-c2ccc(N)nn2)cc1OC(F)F [compound 12], the IC50 (PDE III) was 316 µM, the “PDE IV dog trachea -lg[IC50 ]” value (PDE IV [1]) was 4.42 and the “[IC50 ] PDE III/[IC50 ] PDE IV dog tr.” value (PDE IV [1]) was 9.6. The EC50 (tracheal rings) was 4.47 µM, the “[EC50 ] theophylline/[EC50 ] substance” value (tracheal rings) was 30.2 and the responders at 100 µmol/kg [2, 5] was 50%.
With CCOc1cc(-c2ccc(N)[n+]([O-])n2)ccc1OC(F)F [compound 19] the IC50 (PDE III) was 63.1 µM, the “PDE IV dog trachea -lg[IC50 ]” value (PDE IV [1]) was 5.82 and the “[IC50 ] PDE III/[IC50 ] PDE IV dog tr.” value (PDE IV [1]) was 41.7. For the same compound, the “PDE IV hum. PMNs -lg[IC50 ]” value (PDE IV [3]) was 6.58, the “[IC50 ] PDE III/[IC50 ] PDE IV PMNs” value (PDE IV [3]) was 240 and the inhibition in vivo at 20 µmol/kg [4, 6] was 81%. For the same compound, the inhibition in vivo at 20 µmol/kg [4, 7] was 71%, the EC50 (tracheal rings) was 0.151 µM and the “[EC50 ] theophylline/[EC50 ] substance” value (tracheal rings) was 893. The responders at 4 µmol/kg ([2]; Cavia porcellus, 0.5 h, 4 μmol/kg) was 50%.
In the case of COc1ccc(-c2ccc(N)nn2)cc1OCC(C)C [Serial No. 2, 3-amino-6-[4-methoxy-3-(2-methylpropoxy)phenyl]pyridazine], the IC50 (PDE III) is reported as 209 µM, the “PDE IV dog trachea -lg[IC50 ]” value (PDE IV [1]) is reported as under 5.0 and the “[IC50 ] PDE III/[IC50 ] PDE IV dog tr.” value (PDE IV [1]) is reported as under 20.9. For the same compound, the responders at 30 µmol/kg ([2]; Cavia porcellus, 0.5 h, 30 μmol/kg) was 50% and the responders at 100 µmol/kg [2, 5] was 80%.
“3-amino-6-(3-cyclopentyloxy-4methoxyphenyl)pyridazine [Serial No. 6]” was tested, and the “PDE III hum. platelets -lg[IC50 ]” value (PDE III) was under 4.0, the “PDE IV dog trachea -lg[IC50 ]” value (PDE IV [1]) was 6.48 and the “[IC50 ] PDE III/[IC50 ] PDE IV dog tr.” value (PDE IV [1]) was over 304. For the same compound, the “PDE IV hum. PMNs -lg[IC50 ]” value (PDE IV [3]) was 6.18, the “[IC50 ] PDE III/[IC50 ] PDE IV PMNs” value (PDE IV [3]) was over 151 and the “% inhibition after 1 h of the histamine-induced decrease in Vmax” value ([4]; i.v., after 1 h) was 20%. For the same compound, the “% inhibition (0-1 h) of the histamine-induced decrease in Vmax” value ([4]; i.v., average 0-1 h after administration) was 34%, the “% protective effect” value ([2]; 30 μmol/kg) was 50% and the “% protective effect” value ([2]; 100 μmol/kg) was 70%. The “% protective effect” value ([2]; 300 μmol/kg) was 80%.
For COc1cc(-c2ccc(N)[n+]([O-])n2)ccc1OC(F)F [compound 20], the IC50 (PDE III) was 14.8 µM, the “PDE IV dog trachea -lg[IC50 ]” value (PDE IV [1]) was 5.08 and the “[IC50 ] PDE III/[IC50 ] PDE IV dog tr.” value (PDE IV [1]) was 1.8. The “PDE IV hum. PMNs -lg[IC50 ]” value (PDE IV [3]) was 5.89, the “[IC50 ] PDE III/[IC50 ] PDE IV PMNs” value (PDE IV [3]) was 11.5 and the inhibition in vivo at 20 µmol/kg [4, 6] was 48%. For the same compound, the inhibition in vivo at 20 µmol/kg [4, 7] was 40%, the EC50 (tracheal rings) was 0.447 µM and the “[EC50 ] theophylline/[EC50 ] substance” value (tracheal rings) was 302. For the same compound, the responders at 2 µmol/kg ([2]; Cavia porcellus, 0.5 h, 2 μmol/kg) was 50%.
With COc1cc(-c2ccc(N)nn2)ccc1OC(F)F [compound 11] the IC50 (PDE III) was 195 µM, the “PDE IV dog trachea -lg[IC50 ]” value (PDE IV [1]) was 5.09 and the “[IC50 ] PDE III/[IC50 ] PDE IV dog tr.” value (PDE IV [1]) was 22.9. For the same compound, the inhibition in vivo at 20 µmol/kg [4, 6] was 26%, the inhibition in vivo at 20 µmol/kg [4, 7] was 30% and the EC50 (tracheal rings) was 4.9 µM. For the same compound, the “[EC50 ] theophylline/[EC50 ] substance” value (tracheal rings) was 27.6 and the responders at 100 µmol/kg [2, 5] was 80%.
COc1ccc(-c2ccc(N)nn2)cc1OCC1CCC1 [compound 13] was tested, and the IC50 (PDE III) was 224 µM, the “PDE IV dog trachea -lg[IC50 ]” value (PDE IV [1]) was 4.88 and the “[IC50 ] PDE III/[IC50 ] PDE IV dog tr.” value (PDE IV [1]) was 17.0. It also gave a responders at 100 µmol/kg [2, 5] of 65%.
With COc1ccc(-c2ccc(N)nn2)cc1OC(C)C [Serial No. 3, 3-amino-6-[4-methoxy-3-(1-methylethoxy)phenyl]pyridazine] the “PDE III hum. platelets -lg[IC50 ]” value (PDE III) was 3.66, the “PDE IV dog trachea -lg[IC50 ]” value (PDE IV [1]) was 5.30 and the “[IC50 ] PDE III/[IC50 ] PDE IV dog tr.” value (PDE IV [1]) was 43.7.
CCOc1ccc(-c2ccc(N)nn2)cc1OCC(C)C [compound 9] was tested, and the IC50 (PDE III) was 126 µM, the “PDE IV dog trachea -lg[IC50 ]” value (PDE IV [1]) was 5.68 and the “[IC50 ] PDE III/[IC50 ] PDE IV dog tr.” value (PDE IV [1]) was 60.2. It also gave an inhibition in vivo at 20 µmol/kg [4, 6] of 20%, an inhibition in vivo at 20 µmol/kg [4, 7] of 16% and an EC50 (tracheal rings) of 9.77 µM. For the same compound, the “[EC50 ] theophylline/[EC50 ] substance” value (tracheal rings) was 13.8 and the responders at 100 µmol/kg [2, 5] was 65%.
CCOc1cc(-c2ccc(N)nn2)ccc1OC(F)F [compound 10] was tested, and the IC50 (PDE III) was 224 µM, the “PDE IV dog trachea -lg[IC50 ]” value (PDE IV [1]) was 5.37 and the “[IC50 ] PDE III/[IC50 ] PDE IV dog tr.” value (PDE IV [1]) was 52.5. For the same compound, the inhibition in vivo at 20 µmol/kg [4, 6] was 44%, the inhibition in vivo at 20 µmol/kg [4, 7] was 38% and the EC50 (tracheal rings) was 8.32 µM. For the same compound, the “[EC50 ] theophylline/[EC50 ] substance” value (tracheal rings) was 16.2 and the responders at 100 µmol/kg [2, 5] was 50%.
